The results in this text go back to PMC6152416, “Pharmacological and Toxicological Screening of Novel Benzimidazole-Morpholine Derivatives as Dual-Acting Inhibitors” (Molecules : A Journal of Synthetic Chemistry and Natural …, 2017).

The first assay addresses T1, COX-2 (Homo sapiens, UniProt P35354).
T1 construct: purchased BioVision (Milpitas, CA, USA) K547-100
T1 sequence (P35354 18-604): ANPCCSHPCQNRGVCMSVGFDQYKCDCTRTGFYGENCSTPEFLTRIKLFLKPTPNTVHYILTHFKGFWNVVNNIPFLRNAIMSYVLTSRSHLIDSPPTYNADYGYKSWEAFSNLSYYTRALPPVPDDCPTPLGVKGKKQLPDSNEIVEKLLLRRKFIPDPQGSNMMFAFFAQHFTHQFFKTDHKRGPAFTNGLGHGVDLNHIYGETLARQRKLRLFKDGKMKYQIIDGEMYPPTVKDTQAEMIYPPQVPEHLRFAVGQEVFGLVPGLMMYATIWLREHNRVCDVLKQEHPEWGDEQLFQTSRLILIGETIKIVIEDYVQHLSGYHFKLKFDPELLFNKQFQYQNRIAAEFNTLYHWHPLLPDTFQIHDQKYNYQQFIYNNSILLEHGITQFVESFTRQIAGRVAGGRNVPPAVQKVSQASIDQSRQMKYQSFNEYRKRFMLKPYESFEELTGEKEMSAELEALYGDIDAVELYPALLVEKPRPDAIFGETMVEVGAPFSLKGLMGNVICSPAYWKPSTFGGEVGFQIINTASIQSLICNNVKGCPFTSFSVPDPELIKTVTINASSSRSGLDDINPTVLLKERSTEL
The assay is described as follows: Fluorimetric COX-2 inhibition screening kit (BioVision). It is filed as biochemical. The conditions noted are these: 10^-3 M. As to the method:
(§1) Inhibitory potency of the compounds on COX-1 and COX-2 enzymes was determined by using fluorimetric COX-1 and COX-2 inhibition screening kits from BioVision (Milpitas, CA, USA). The experimental protocol as described in the guides provided by the supplier was followed. All of the pipetting were performed using a robotized system to increase speed, accuracy and precision. Fluorescence intensities of the samples were kinetically measured at 25 °C for 5–10 min by monitoring emissions at 587 nm after excitation at 535 nm. Two appropriate points (T1 and T2) in the linear range of the plot were chosen and the corresponding fluorescence values (RFU1 and RFU2) were obtained. The slope for all samples including Enzyme Control (EC) was calculated by dividing the net ΔRFU (RFU2 − RFU1) values by the time ΔT (T2 − T1). Percentage of relative inhibition was calculated by using the following equation:% Relative inhibition = (Slope of EC − Slope of S/Slope of EC) × 100 where S is the term representing the tested compound [51, 52]. […] The IC50 values were calculated using the plots of the enzyme activity against concentrations by applying regression analyses.
Consider `CN(C)c1ccc(-c2nc3ccccc3n2CCN2CCOCC2)cc1` [Compound 2i, 2-(4-Dimethylaminophenyl)-1-[2-(morpholin-4-yl)ethyl]-1H-benzimidazole], for which the “COX-2 Inhibition (%)” value is 18.47%.
For the molecule `N#Cc1ccc(-c2nc3ccccc3n2CCN2CCOCC2)cc1` [Compound 2k, 2-(4-Cyanophenyl)-1-[2-(morpholin-4-yl)ethyl]-1H-benzimidazole], the “COX-2 Inhibition (%)” value is on record as 26.39%.
For `FC(F)(F)c1ccc(-c2nc3ccccc3n2CCN2CCOCC2)cc1` [Compound 2l, 2-(4-Trifluoromethylphenyl)-1-[2-(morpholin-4-yl)ethyl]-1H-benzimidazole], the “COX-2 Inhibition (%)” value turned out to be 21.00%.

The same assay, now with this note: 10^-4 M.
For the molecule `CN(C)c1ccc(-c2nc3ccccc3n2CCN2CCOCC2)cc1` [Compound 2i, 2-(4-Dimethylaminophenyl)-1-[2-(morpholin-4-yl)ethyl]-1H-benzimidazole], the “COX-2 Inhibition (%)” value turned out to be 25.76%.
For `N#Cc1ccc(-c2nc3ccccc3n2CCN2CCOCC2)cc1` [Compound 2k, 2-(4-Cyanophenyl)-1-[2-(morpholin-4-yl)ethyl]-1H-benzimidazole], the “COX-2 Inhibition (%)” value is listed as 20.46%.
In the case of `FC(F)(F)c1ccc(-c2nc3ccccc3n2CCN2CCOCC2)cc1` [Compound 2l, 2-(4-Trifluoromethylphenyl)-1-[2-(morpholin-4-yl)ethyl]-1H-benzimidazole], the “COX-2 Inhibition (%)” value is on record as 34.62%.

In another assay the target is T2, COX-1 (Ovis aries, UniProt P05979).
T2 construct: purchased BioVision (Milpitas, CA, USA) K548-100
T2 sequence (P05979 25-600): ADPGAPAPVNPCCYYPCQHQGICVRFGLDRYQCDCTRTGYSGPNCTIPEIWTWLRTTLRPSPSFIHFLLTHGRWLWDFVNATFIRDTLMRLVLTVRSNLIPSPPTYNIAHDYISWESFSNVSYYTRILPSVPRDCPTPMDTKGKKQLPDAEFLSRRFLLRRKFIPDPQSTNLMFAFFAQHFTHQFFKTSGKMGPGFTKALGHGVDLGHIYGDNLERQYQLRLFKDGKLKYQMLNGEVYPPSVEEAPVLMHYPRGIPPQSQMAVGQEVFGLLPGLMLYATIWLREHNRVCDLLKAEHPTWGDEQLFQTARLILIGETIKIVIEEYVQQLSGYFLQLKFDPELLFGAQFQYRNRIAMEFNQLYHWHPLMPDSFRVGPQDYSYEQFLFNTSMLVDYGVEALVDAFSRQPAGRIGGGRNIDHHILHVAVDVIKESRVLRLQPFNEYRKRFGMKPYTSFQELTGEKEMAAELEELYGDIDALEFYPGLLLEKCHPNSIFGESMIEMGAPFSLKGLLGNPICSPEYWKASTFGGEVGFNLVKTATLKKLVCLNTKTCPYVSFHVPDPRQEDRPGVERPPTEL
The assay is described as follows: Fluorimetric COX-1 inhibition screening kit (BioVision). The format is biochemical. The conditions noted are these: 10^-3 M. As to the method: as §1
As to `CN(C)c1ccc(-c2nc3ccccc3n2CCN2CCOCC2)cc1` [Compound 2i, 2-(4-Dimethylaminophenyl)-1-[2-(morpholin-4-yl)ethyl]-1H-benzimidazole], the “COX-1 Inhibition (%)” value is on record as 30.08%.
Consider `N#Cc1ccc(-c2nc3ccccc3n2CCN2CCOCC2)cc1` [Compound 2k, 2-(4-Cyanophenyl)-1-[2-(morpholin-4-yl)ethyl]-1H-benzimidazole], for which the “COX-1 Inhibition (%)” value is on record as 28.63%.
For the molecule `FC(F)(F)c1ccc(-c2nc3ccccc3n2CCN2CCOCC2)cc1` [Compound 2l, 2-(4-Trifluoromethylphenyl)-1-[2-(morpholin-4-yl)ethyl]-1H-benzimidazole], the “COX-1 Inhibition (%)” value is 36.87%.

The same assay, now with this note: 10^-4 M.
Take `CN(C)c1ccc(-c2nc3ccccc3n2CCN2CCOCC2)cc1` [Compound 2i, 2-(4-Dimethylaminophenyl)-1-[2-(morpholin-4-yl)ethyl]-1H-benzimidazole]: the “COX-1 Inhibition (%)” value is 22.62%.
For `N#Cc1ccc(-c2nc3ccccc3n2CCN2CCOCC2)cc1` [Compound 2k, 2-(4-Cyanophenyl)-1-[2-(morpholin-4-yl)ethyl]-1H-benzimidazole], the “COX-1 Inhibition (%)” value came out at 28.13%.
On to `FC(F)(F)c1ccc(-c2nc3ccccc3n2CCN2CCOCC2)cc1` [Compound 2l, 2-(4-Trifluoromethylphenyl)-1-[2-(morpholin-4-yl)ethyl]-1H-benzimidazole], for which the “COX-1 Inhibition (%)” value was 33.46%.

The target in the next assay is T3, human recombinant MAO-B (Homo sapiens, UniProt P27338).
T3 sequence (P27338 1-520): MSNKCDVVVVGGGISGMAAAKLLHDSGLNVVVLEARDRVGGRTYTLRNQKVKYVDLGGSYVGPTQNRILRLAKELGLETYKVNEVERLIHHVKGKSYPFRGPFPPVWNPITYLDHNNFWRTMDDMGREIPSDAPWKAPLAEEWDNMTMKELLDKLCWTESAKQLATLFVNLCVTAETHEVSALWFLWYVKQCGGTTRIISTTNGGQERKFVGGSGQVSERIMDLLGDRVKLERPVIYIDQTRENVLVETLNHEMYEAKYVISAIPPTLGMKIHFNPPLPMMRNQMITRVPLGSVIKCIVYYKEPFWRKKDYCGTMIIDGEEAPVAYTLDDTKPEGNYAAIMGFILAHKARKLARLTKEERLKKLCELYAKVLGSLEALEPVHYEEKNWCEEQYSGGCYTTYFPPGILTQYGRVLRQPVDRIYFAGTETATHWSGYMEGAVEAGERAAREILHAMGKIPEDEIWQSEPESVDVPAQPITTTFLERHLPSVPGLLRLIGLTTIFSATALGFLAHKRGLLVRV
In words: MAO inhibition assay (kynuramine, fluorimetric). The format is biochemical. The conditions noted are these: 10^-3 M. As to the method:
(§2) Enzyme activity assays were performed according to the procedure reported by Matsumoto et al. with slight modifications. In order to prevent the destructive effect of light on MAO enzymes, the assays were performed in 96-well black plates. Phosphate buffer solution (0.1 M, pH = 7.4) was used for preparation of stock solutions (5 mg/mL) of both human recombinant MAO-A and MAO-B enzymes. […] The addition of the test compound solution was followed by addition of either MAO-A or MAO-B enzyme (50 μL/well) solutions. After 10 min of incubation at 37 °C, kynuramine (50 μL/well) was added and enzyme-substrate reaction was initiated. The plate was incubated for 20 min at 37 °C and then reaction was terminated by addition of 2 N NaOH (75 μL/well). The fluorimetric reads from the top was performed at 310 nm excitation and 380 nm emission wavelengths.
Turning to `CN(C)c1ccc(-c2nc3ccccc3n2CCN2CCOCC2)cc1` [Compound 2i, 2-(4-Dimethylaminophenyl)-1-[2-(morpholin-4-yl)ethyl]-1H-benzimidazole], the “MAO-B Inhibition (%)” value is listed as 22.17%.
Still for that read-out and setting: the value for `N#Cc1ccc(-c2nc3ccccc3n2CCN2CCOCC2)cc1` [Compound 2k, 2-(4-Cyanophenyl)-1-[2-(morpholin-4-yl)ethyl]-1H-benzimidazole] was 43.22%; that for `FC(F)(F)c1ccc(-c2nc3ccccc3n2CCN2CCOCC2)cc1` [Compound 2l, 2-(4-Trifluoromethylphenyl)-1-[2-(morpholin-4-yl)ethyl]-1H-benzimidazole] was 47.66%.

The same assay, now with this note: 10^-4 M.
In the case of `CN(C)c1ccc(-c2nc3ccccc3n2CCN2CCOCC2)cc1` [Compound 2i, 2-(4-Dimethylaminophenyl)-1-[2-(morpholin-4-yl)ethyl]-1H-benzimidazole], the “MAO-B Inhibition (%)” value was 14.43%.
As to `N#Cc1ccc(-c2nc3ccccc3n2CCN2CCOCC2)cc1` [Compound 2k, 2-(4-Cyanophenyl)-1-[2-(morpholin-4-yl)ethyl]-1H-benzimidazole], the “MAO-B Inhibition (%)” value amounted to 34.29%.
Consider `FC(F)(F)c1ccc(-c2nc3ccccc3n2CCN2CCOCC2)cc1` [Compound 2l, 2-(4-Trifluoromethylphenyl)-1-[2-(morpholin-4-yl)ethyl]-1H-benzimidazole], for which the “MAO-B Inhibition (%)” value is listed as 38.09%.

The target in a further assay is T4, human recombinant MAO-A (Homo sapiens, UniProt P21397).
T4 sequence (P21397 1-527): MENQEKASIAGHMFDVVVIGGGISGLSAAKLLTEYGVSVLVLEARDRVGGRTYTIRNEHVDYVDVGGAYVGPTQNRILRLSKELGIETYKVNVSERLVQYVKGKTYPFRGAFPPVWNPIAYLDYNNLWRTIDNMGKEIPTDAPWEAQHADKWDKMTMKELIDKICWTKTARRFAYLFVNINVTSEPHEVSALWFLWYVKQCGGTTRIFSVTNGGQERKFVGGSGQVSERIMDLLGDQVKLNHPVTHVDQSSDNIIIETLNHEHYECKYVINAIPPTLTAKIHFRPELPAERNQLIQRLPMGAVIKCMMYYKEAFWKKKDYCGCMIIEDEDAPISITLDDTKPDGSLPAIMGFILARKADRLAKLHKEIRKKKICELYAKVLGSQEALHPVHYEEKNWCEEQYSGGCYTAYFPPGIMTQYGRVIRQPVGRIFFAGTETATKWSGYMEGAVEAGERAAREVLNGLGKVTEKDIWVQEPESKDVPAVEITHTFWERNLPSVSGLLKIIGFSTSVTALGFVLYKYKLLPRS
In words: MAO inhibition assay (kynuramine, fluorimetric). It is filed as biochemical. The following applies: 10^-3 M. As to the method:
as §2
Regarding `CN(C)c1ccc(-c2nc3ccccc3n2CCN2CCOCC2)cc1` [Compound 2i, 2-(4-Dimethylaminophenyl)-1-[2-(morpholin-4-yl)ethyl]-1H-benzimidazole], the “MAO-A Inhibition (%)” value turned out to be 26.91%.
Consider `N#Cc1ccc(-c2nc3ccccc3n2CCN2CCOCC2)cc1` [Compound 2k, 2-(4-Cyanophenyl)-1-[2-(morpholin-4-yl)ethyl]-1H-benzimidazole], for which the “MAO-A Inhibition (%)” value was found to be 31.99%.
Same read-out and setting: the value for `FC(F)(F)c1ccc(-c2nc3ccccc3n2CCN2CCOCC2)cc1` [Compound 2l, 2-(4-Trifluoromethylphenyl)-1-[2-(morpholin-4-yl)ethyl]-1H-benzimidazole] was 38.51%.

Staying with this assay, now noted: 10^-4 M.
Regarding `CN(C)c1ccc(-c2nc3ccccc3n2CCN2CCOCC2)cc1` [Compound 2i, 2-(4-Dimethylaminophenyl)-1-[2-(morpholin-4-yl)ethyl]-1H-benzimidazole], the “MAO-A Inhibition (%)” value turned out to be 19.20%.
Same read-out and setting: the value for `N#Cc1ccc(-c2nc3ccccc3n2CCN2CCOCC2)cc1` [Compound 2k, 2-(4-Cyanophenyl)-1-[2-(morpholin-4-yl)ethyl]-1H-benzimidazole] was 26.86%; that for `FC(F)(F)c1ccc(-c2nc3ccccc3n2CCN2CCOCC2)cc1` [Compound 2l, 2-(4-Trifluoromethylphenyl)-1-[2-(morpholin-4-yl)ethyl]-1H-benzimidazole] was 30.16%.

The target in a further assay is AChE (Homo sapiens, UniProt P22303).
Sequence of AChE (P22303 32-614): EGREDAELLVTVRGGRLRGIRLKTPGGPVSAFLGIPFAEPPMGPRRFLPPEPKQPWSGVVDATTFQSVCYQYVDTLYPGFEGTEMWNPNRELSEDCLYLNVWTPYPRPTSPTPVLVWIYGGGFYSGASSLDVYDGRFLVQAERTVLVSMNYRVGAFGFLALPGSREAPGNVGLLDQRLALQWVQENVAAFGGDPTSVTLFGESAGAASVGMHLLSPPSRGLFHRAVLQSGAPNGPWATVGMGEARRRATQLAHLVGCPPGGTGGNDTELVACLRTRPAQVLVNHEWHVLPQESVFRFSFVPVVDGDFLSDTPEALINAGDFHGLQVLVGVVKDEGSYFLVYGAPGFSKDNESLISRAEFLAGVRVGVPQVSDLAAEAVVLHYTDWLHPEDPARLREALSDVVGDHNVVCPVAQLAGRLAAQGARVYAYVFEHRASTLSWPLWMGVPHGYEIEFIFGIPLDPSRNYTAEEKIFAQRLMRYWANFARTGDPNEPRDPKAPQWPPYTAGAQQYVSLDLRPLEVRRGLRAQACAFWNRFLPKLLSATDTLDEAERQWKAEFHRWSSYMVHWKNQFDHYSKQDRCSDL
Assay: not given
The format is biochemical. The conditions noted are these: 10^-3 M. As to the method: Inhibition potency of the test compounds against AChE was determined using Ellman’s method. Enzyme solutions were prepared in gelatin solution (1%, w/v), at the concentration of 2.5 units/mL. […] AChE solution (20 µL/well) and test solution (20 µL/well) were added to phosphate buffer solution (140 µL/well, pH 8.0 ± 0.1), and incubated at 25 °C for 5 min. […] The production of the yellow anion was recorded by multimode microplate reader for 10 min at 412 nm. As a control, an identical solution of the enzyme without the inhibitor was processed. The control and the inhibitor readings were corrected with blank-readings. All processes were assayed in four independent determinations.
With `CN(C)c1ccc(-c2nc3ccccc3n2CCN2CCOCC2)cc1` [Compound 2i, 2-(4-Dimethylaminophenyl)-1-[2-(morpholin-4-yl)ethyl]-1H-benzimidazole], the “AChE Inhibition (%)” value turned out to be 7.54%.
On to `N#Cc1ccc(-c2nc3ccccc3n2CCN2CCOCC2)cc1` [Compound 2k, 2-(4-Cyanophenyl)-1-[2-(morpholin-4-yl)ethyl]-1H-benzimidazole], for which the “AChE Inhibition (%)” value is given as 20.45%.
For the molecule `FC(F)(F)c1ccc(-c2nc3ccccc3n2CCN2CCOCC2)cc1` [Compound 2l, 2-(4-Trifluoromethylphenyl)-1-[2-(morpholin-4-yl)ethyl]-1H-benzimidazole], the “AChE Inhibition (%)” value came to 33.88%.

The assay is the same for the next values; noted with them: 10^-4 M.
`CN(C)c1ccc(-c2nc3ccccc3n2CCN2CCOCC2)cc1` [Compound 2i, 2-(4-Dimethylaminophenyl)-1-[2-(morpholin-4-yl)ethyl]-1H-benzimidazole]: the “AChE Inhibition (%)” value was found to be 7.54%.
As to `N#Cc1ccc(-c2nc3ccccc3n2CCN2CCOCC2)cc1` [Compound 2k, 2-(4-Cyanophenyl)-1-[2-(morpholin-4-yl)ethyl]-1H-benzimidazole], the “AChE Inhibition (%)” value is 20.45%.
Consider `FC(F)(F)c1ccc(-c2nc3ccccc3n2CCN2CCOCC2)cc1` [Compound 2l, 2-(4-Trifluoromethylphenyl)-1-[2-(morpholin-4-yl)ethyl]-1H-benzimidazole], for which the “AChE Inhibition (%)” value turned out to be 33.88%.
